In test [1] the target is T1, Metabotropic glutamate receptor 2 (Homo sapiens, UniProt Q14416). The test is described as follows: Evaluation of the functional effect on cAMP responses in RGT cells expressing human mGlu2 receptor. It is filed as cell-based.
The target in test [2] is T2, Metabotropic glutamate receptor 3 (Homo sapiens, UniProt Q14832). The test is described as follows: Evaluation of the functional effect on cAMP responses in RGT cells expressing human mGlu3 receptor. It counts as cell-based.
T2 sequence (Q14832 whole entry): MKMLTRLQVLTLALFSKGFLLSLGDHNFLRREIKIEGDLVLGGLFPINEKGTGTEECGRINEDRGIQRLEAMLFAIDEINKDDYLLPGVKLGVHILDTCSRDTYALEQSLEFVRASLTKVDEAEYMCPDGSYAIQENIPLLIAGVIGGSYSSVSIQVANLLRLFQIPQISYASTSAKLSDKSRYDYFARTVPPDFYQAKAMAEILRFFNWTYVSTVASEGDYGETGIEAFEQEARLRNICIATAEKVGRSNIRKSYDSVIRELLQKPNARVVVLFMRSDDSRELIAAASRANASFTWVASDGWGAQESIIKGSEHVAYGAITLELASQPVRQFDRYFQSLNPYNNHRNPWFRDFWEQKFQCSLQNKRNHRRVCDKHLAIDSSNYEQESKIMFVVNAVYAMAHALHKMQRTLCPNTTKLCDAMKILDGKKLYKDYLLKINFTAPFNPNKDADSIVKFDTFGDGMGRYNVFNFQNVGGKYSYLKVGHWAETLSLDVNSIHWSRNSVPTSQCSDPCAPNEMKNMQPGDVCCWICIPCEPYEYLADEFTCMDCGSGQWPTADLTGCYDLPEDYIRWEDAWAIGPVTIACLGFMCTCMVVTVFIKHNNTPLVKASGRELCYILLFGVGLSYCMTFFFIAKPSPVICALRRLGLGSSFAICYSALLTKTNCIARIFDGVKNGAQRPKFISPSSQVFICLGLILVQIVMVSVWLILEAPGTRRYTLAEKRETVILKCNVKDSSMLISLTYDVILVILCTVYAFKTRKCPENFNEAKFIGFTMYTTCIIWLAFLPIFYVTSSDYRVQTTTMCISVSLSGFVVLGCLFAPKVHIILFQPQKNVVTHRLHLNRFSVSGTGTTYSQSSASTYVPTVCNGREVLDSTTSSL
Test [3] has as its target T1, Metabotropic glutamate receptor 2. The test is described as follows: Displacement of [3H]-341495 binding to membranes expressing recombinant human Metabotropic glutamate receptor 2. In general terms: Loss of bound radioactivity is the signal in a displacement assay; it reports binding, not function.
The target of test [4] is T2, Metabotropic glutamate receptor 3. The test is described as follows: Displacement of [3H]-341495 binding to membranes expressing recombinant human Metabotropic glutamate receptor 3.

One may read the EC50 as the midpoint of the concentration-response curve. Usually Ki stands for the equilibrium dissociation constant of an inhibitor or competing ligand from its target. By IC50 is commonly meant the concentration needed to halve the response being measured. Read a low IC50 as greater potency.

T1 sequence (Q14416 whole entry): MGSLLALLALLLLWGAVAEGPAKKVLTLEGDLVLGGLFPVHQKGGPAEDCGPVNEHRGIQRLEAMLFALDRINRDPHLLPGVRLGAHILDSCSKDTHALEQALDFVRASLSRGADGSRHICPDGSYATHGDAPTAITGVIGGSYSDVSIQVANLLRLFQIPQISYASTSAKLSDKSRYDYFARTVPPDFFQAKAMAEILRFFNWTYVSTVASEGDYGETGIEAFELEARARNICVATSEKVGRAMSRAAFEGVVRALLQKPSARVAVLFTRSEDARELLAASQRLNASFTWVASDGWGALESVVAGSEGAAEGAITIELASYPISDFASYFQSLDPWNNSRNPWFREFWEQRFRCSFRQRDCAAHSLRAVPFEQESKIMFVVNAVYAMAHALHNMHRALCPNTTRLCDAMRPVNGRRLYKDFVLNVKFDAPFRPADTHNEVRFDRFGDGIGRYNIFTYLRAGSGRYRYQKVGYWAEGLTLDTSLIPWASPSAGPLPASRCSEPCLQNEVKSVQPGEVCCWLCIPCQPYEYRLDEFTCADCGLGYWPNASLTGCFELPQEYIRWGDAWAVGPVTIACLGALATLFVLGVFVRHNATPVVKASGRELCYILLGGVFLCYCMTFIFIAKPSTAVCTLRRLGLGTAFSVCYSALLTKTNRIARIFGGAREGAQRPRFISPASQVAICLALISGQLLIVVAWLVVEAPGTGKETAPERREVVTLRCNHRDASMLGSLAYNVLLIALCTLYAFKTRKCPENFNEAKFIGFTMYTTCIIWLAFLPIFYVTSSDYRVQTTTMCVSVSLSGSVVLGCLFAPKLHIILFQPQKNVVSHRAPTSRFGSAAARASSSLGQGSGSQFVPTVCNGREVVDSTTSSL

Turning to `C[C@H]1C[C@](N)(C(=O)O)[C@H]2[C@H](C(=O)O)[C@H]21`, the EC50 in test [1] and in test [2] was over 100000 nM throughout. For the same compound, the Ki in test [3] and in test [4] was over 100000 nM throughout.

Compound `C[C@@H]1C[C@@](N)(C(=O)O)[C@@H]2[C@@H](C(=O)O)[C@@H]21` (stereo in doubt; 13) registered an EC50 in test [1] of 397 nM. Further, the IC50 in test [2] came out at 2940 nM. Moreover, the values for the Ki in test [3] and in test [4] were 409 nM and 570 nM, respectively.

In the case of `C[C@H]1C[C@@](N)(C(=O)O)[C@@H]2[C@@H](C(=O)O)[C@@H]21`, the results for the EC50 in test [1] and in test [2] were 45 nM and 34 nM, respectively. In addition, the Ki in test [4] was found to be 511 nM.

As to `C[C@@H]1C[C@@](N)(C(=O)O)[C@@H]2[C@@H](C(=O)O)[C@@H]21` (stereo in doubt; (+)-13), the response in test [1] was half-maximal at 161 nM (EC50). Moreover, the IC50 in test [2] worked out at 1050 nM. The Ki in test [3] was 165 nM; in test [4], 302 nM.

On to `N[C@@]1(C(=O)O)CC[C@H]2[C@H](C(=O)O)[C@H]21`, for which the midpoint of the response in test [1], the EC50, lay at 10 nM. The Ki in test [3] came out at 74 nM.

On to `C[C@@H]1C[C@H]2[C@H](C(=O)O)[C@H]2[C@]1(N)C(=O)O`, for which, in test [1], the IC50 amounted to 1750 nM. Moreover, in test [4], the Ki was 146 nM.

Values taken from ChEMBL document CHEMBL1139514, “Methyl substitution of 2-aminobicyclo[3.1.0]hexane 2,6-dicarboxylate (LY354740) determines functional activity at metabotropic glutamate receptors: identification of a subtype selective mGlu2 receptor agonist” (J Med Chem, 2005).
